Measured values from patent US11013779B2, “Small molecule therapeutic inhibitors against picornaviruses, caliciviruses, and coronaviruses” (Kansas State University Research Foundation, priority 2016, dated 2021).

How the values were obtained:
α-chymotrypsin = assay type: biochemical, human
Factor Xa = Factor Xa (Homo sapiens, UniProt P00742); assay type: biochemical
thrombin = thrombin (Homo sapiens, UniProt P00734); assay type: biochemical
plasmin = plasmin (Homo sapiens, UniProt P00747); assay type: biochemical
plasmin, sequence (P00747 581-810 limits assumed): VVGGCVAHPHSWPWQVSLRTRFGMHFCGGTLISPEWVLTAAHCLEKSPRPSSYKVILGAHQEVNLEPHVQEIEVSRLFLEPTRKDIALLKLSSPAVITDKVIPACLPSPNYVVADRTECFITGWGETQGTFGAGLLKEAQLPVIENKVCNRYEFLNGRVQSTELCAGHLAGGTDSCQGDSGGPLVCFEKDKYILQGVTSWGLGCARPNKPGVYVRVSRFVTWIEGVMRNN
plasmin, sequence (P00747 97-580 partner limits assumed): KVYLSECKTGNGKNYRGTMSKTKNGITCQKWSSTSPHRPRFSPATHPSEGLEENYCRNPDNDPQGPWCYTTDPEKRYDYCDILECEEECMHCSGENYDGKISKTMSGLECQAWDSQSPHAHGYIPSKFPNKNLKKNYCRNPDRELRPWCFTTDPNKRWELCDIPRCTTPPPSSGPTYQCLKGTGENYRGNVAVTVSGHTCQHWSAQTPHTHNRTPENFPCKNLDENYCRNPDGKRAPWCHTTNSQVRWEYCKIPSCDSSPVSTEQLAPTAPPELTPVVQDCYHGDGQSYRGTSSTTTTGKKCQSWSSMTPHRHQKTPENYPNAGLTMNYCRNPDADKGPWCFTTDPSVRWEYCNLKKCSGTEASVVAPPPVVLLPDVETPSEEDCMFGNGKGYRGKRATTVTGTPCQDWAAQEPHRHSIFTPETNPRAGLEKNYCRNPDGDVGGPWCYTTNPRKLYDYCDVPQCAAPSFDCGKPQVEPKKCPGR

trypsin = trypsin (Homo sapiens, UniProt P07477); assay type: biochemical

Factor Xa, sequence (P00742 235-488 limits assumed): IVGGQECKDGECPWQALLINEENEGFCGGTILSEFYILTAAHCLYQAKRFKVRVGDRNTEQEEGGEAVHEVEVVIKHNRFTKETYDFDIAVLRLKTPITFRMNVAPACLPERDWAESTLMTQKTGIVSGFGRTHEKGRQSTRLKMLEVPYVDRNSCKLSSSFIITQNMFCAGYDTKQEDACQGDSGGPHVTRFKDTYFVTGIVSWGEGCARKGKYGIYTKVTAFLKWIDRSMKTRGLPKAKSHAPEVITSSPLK
Factor Xa, sequence (P00742 41-179 partner limits assumed): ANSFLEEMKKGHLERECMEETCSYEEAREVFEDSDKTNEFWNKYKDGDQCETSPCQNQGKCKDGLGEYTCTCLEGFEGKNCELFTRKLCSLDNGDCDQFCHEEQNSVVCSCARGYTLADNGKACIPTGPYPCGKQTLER

CC(C)C[C@H](NC(=O)OC1CCN(C(=O)OC(C)(C)C)CC1)C(=O)N[C@@H](C[C@@H]1CCNC1=O)C(O)S(=O)(=O)[O-].[Na+] (some centres unmarked) [GC868]
No or minimal inhibition: inhibition of α-chymotrypsin (α-chymotrypsin) | inhibition of Factor Xa (Factor Xa) | inhibition of thrombin (thrombin) | inhibition of plasmin (plasmin) | inhibition of trypsin (trypsin)
